According to paper PMC11359197 (Viruses, 2024):
Where a SMILES comes first, the peptide text is derived from it.

system: SARS-CoV-2 M^pro precursors Nsp4-4F-M^pro-GST and 4F-M^pro-GST; format: cell-based

| SMILES | AlphaLISA signal (precursor-mediated N-terminal processing) |
| --- | --- |
| CC(C)C[C@H](NC(=O)[C@H]1O[C@@H]1C(=O)O)C(=O)NCCCCN=C(N)N [E-64] | background levels |
| CC(NC(=O)[C@H](Cc1ccccc1)NC(=O)OCc1ccccc1)C(=O)CF (stereo partly drawn) [Z-FA-FMK] | no detectable impact |
| COC(=O)N[C@H](C(=O)N[C@@H](Cc1ccccc1)[C@@H](O)CN(Cc1ccc(-c2ccccn2)cc1)NC(=O)[C@@H](NC(=O)OC)C(C)(C)C)C(C)(C)C [atazanavir] | background levels |
| CC(C)(C)NC(=O)N[C@H](C(=O)N1C[C@H]2[C@@H]([C@H]1C(=O)NC(CC1CCC1)C(=O)C(N)=O)C2(C)C)C(C)(C)C (stereo partly drawn) [boceprevir, Boceprevir] | no detectable impact |
| CSCC[C@@H](C=O)NC(=O)[C@H](CC(C)C)NC(=O)[C@H](CC(C)C)NC(C)=O [calpain inhibitor II] (Ac-Leu-Leu-Met-aldehyde) | no detectable impact |
| Cc1cccc(C)c1OCC(=O)N[C@@H](Cc1ccccc1)[C@@H](O)C[C@H](Cc1ccccc1)NC(=O)[C@H](C(C)C)N1CCCNC1=O [lopinavir] | background levels |
